{
  "source": "patent US20240041878A1",
  "about": "“APELIN RECEPTOR MODULATORS FOR TREATMENT OF A DISORDER OR DISEASE ASSOCIATED WITH BBB PERMEABILITY” (BioAge Labs, Inc., priority 2022, published 2024)",
  "key": {"[1]": {"system": "Mouse primary astrocytes", "test": "Proteome Profiler Mouse Cytokine Array of astrocyte culture supernatant", "format": "cell-based", "conditions": "RAC+BGE-105 [50 nM and 250 nM] versus RAC", "procedure": "To stimulate astrocytes into a reactive state found in aging and neurodegenerative diseases per previous publications (Liddelow et al., 2017; Barbar et al., 2020), a combination of the cytokines TNF-α and IL-1α, and complement factor C1q, were added at 30 ng/mL, 3 ng/mL, and 400 ng/mL, respectively, into astrocyte culture media to make ‘reactive astrocyte cocktail’ (RAC) media. […] Bachem, Cat. #4029110), BAY-11-7082 (50 μM; Abcam, Cat. #ab141228) or equal volume of vehicle (0.01% DMSO in PBS) (hereafter referred to as ‘RAC treatment’). […] To assess a panel of cytokines and chemokines, cell culture supernatant was diluted 1:10 and assayed using the Proteome Profiler Mouse Cytokine Array Kit, Panel A (R&D Systems, Cat. #ARY006) per manufacturer's protocol. Dot blots were analyzed in Fiji (Schindelin et al. 2012. Fiji: an open-source platform for biological-image analysis. Nat Methods 9, 676-682) and transcription factor enrichment was performed with Enrichr (Chen, et al. 2013. Enrichr: interactive and collaborative HTML5 gene list enrichment analysis tool. BMC Bioinformatics 14, 128)."}, "[2]": {"system": "rats", "conditions": "Ason et al., JCI Insight 2020; cited from earlier work"}, "[3]": {"system": "aged mice with TBI", "test": "Traumatic brain injury (TBI) model in aged mice, controlled cortical impact", "format": "in vivo, mouse", "conditions": "given orally before and/or after controlled cortical impact", "excerpt": "This study assessed the effects of BGE-105 on mitigating the effects of CNS damage and inflammation, and accelerating functional recovery, in a mouse model of TBI.\nBGE-105 is given orally to aged mice at various potential doses for a period of time before and/or after controlled cortical impact (model of TBI in mice); during the experimental period, mice undergo various behavioral assessments to understand whether BGE-105 treatment affected motor and cognitive functions known to be impaired by TBI. After, the brains of mice are analyzed for neuroinflammatory markers by a variety of histological and biochemical methods"}, "[4]": {"system": "26 month-old mice", "test": "Total BDNF ELISA in hippocampus of aged mice", "format": "in vivo, mouse", "conditions": "50 mg/kg BID P.O. one week, p<0.05", "procedure": "The mice were handled in accordance with principles and guidelines established by the “Guide for the Care and Use of Laboratory Animals” and overseen by the BioAge Lab's institutional animal care and use committee (IACUC). Mice were housed conventionally in a constant temperature (20-22° C.) and humidity (40%-60%) animal room with a 12/12 h light/dark cycle and free access to food and water. 26 month-old mice were randomized based on the body weight and body condition scores to two groups (vehicle or BGE-105, n=8). Mice were administered P.O. vehicle or BGE-105 at 50 mg/kg (BID) for one week. […]\nHippocampal samples were homogenized with 30 volumes of radioimmunoprecipitation immunoassay (RIPA) buffer with Halt Protease and Phosphatase Inhibitor (Thermofisher) before being spun at 16,000×g for 20 minutes at 4° C. and supernatant removed to new, labeled tube. Total protein concentrations for each sample were analyzed with Pierce BCA Protein Assay Kit (Thermofisher) according to manufacturer's instructions, then all samples were diluted to 0.2 μg/μL with RIPA buffer.\nFor quantitative analysis of hippocampal BDNF expression, tissue samples were assessed with Quantikine® enzyme-linked immunosorbent assay (ELISA) for Total BDNF (R&D Systems) according to manufacturer's instructions. […]"}, "[5]": {"system": "healthy volunteers aged 65 or older", "test": "Phase 1b clinical trial, 10 days of bed rest", "format": "in vivo, human", "conditions": "infusions", "excerpt": "The study described herein characterizes the effects of BGE-105 on immune biomarkers in human in a Phase 1b clinical trial directed to treatment of muscular atrophy. […] The double-blind, placebo-controlled trial evaluated the safety and pharmacodynamics of BGE-105. Twenty-one volunteers underwent 10 days of bed rest while receiving infusions of BGE-105 or placebo. Biological samples from treated and placebo groups were collected on Day 6 and Day 11."}, "[6]": {"system": "Mouse astrocyte cells", "test": "CXCL1 and IL-6 ELISA of astrocyte culture media after RAC treatment", "format": "cell-based", "conditions": "RAC+BGE-105 250 nM"}, "[7]": {"system": "NF-κB signaling pathway in astrocytes", "test": "RT Profiler PCR Array, mouse NF-κB Signaling Targets, in astrocytes", "format": "cell-based", "conditions": "RAC+BGE-105 [250 nM]", "procedure": "To stimulate astrocytes into a reactive state found in aging and neurodegenerative diseases per previous publications (Liddelow et al., 2017; Barbar et al., 2020), a combination of the cytokines TNF-α and IL-1α, and complement factor C1q, were added at 30 ng/mL, 3 ng/mL, and 400 ng/mL, respectively, into astrocyte culture media to make ‘reactive astrocyte cocktail’ (RAC) media. […] Bachem, Cat. #4029110), BAY-11-7082 (50 μM; Abcam, Cat. #ab141228) or equal volume of vehicle (0.01% DMSO in PBS) (hereafter referred to as ‘RAC treatment’). […] Total RNA purity and concentration was assessed using NanoDrop (ThermoFisher). 500 ng of RNA was used for cDNA synthesis using High-Capacity cDNA Reverse Transcription Kit (Fisher Scientific, Cat. #43-749-66) and total volume of cDNA was diluted to a final concentration of 2 ng/μ1. Gene expression was assessed using a RT Profiler PCR Array (Qiagen, Cat. #330231) specific to mouse NF-κB Signaling Targets according to manufacturer's protocol."}},
  "data": [
    {"smiles": "COc1cccc(OC)c1-n1c(NS(=O)(=O)[C@@H](C)[C@H](C)c2ncc(C)cn2)nnc1-c1cncc(C)c1", "note": "[BGE-105, (2S,3R)—N-(4-(2,6-dimethoxyphenyl)-5-(5-methyl-3-pyridinyl)-4H-1,2,4-triazol-3-yl)-3-(5-methyl-2-pyrimidinyl)-2-butanesulfonamide]", "values": [
      {"measurement": "cytokine and chemokine release (array panel)", "setting": "[1]", "result": "significantly reduced"},
      {"measurement": "cardiovascular response", "setting": "[2]", "result": "induces a cardiovascular response"},
      {"measurement": "neuroinflammatory markers and neuro-inflammation", "setting": "[3]", "result": "decrease of neuroinflammatory markers"},
      {"measurement": "increase of concentration of total BDNF in the hippocampus", "setting": "[4]", "result": 20, "unit": "%"},
      {"measurement": "tolerability", "setting": "[5]; 10 days of bed rest", "result": "well tolerated"},
      {"measurement": "muscle atrophy relative to placebo", "setting": "[5]; 10 days of strict bed rest", "result": "statistically significant prevention"},
      {"measurement": "CXCL1 concentration/release (FIG. 12)", "setting": "[6]", "result": "20000 to 40000", "unit": "pg/mL"},
      {"measurement": "IL-6 concentration/release (FIG. 12)", "setting": "[6]", "result": "about 10000 pg/ml"},
      {"measurement": "decrease of Cxcl3 expression", "setting": "[7]", "result": 55, "unit": "%"},
      {"measurement": "increase of Csf3 expression", "setting": "[7]", "result": 16, "unit": "%"},
      {"measurement": "increase of Il2 expression", "setting": "[7]", "result": 184, "unit": "%"}
    ]}
  ]
}
